Common to all, as to format: cell-based
The subject of test [1] is Aspergillus niger IFO 9455 (An-1). The experiment in a line: Fragrant vapor antifungal activity (impregnated paper disc on cover of inverted agar plate). The note with it: 72 hours at 27° C.; for IZ: Diameter of growth inhibition zone: 20 μl fragrance (or 40 μl of 50% ethanol solution) on disc, >85 = growth inhibited over entire plate; for Growth: Growth status outside the inhibition zone: compared with control. Here is the method: (§1) Physiological saline containing 0.05% Tween-80 was added to a slant on which the test organism grew well, and a spore suspension was produced at 1×10^6 CFU (Colony Forming Units)/ml in accordance with ordinary methods. Potato dextrose agar (PDA: Nissui Pharmaceutical) was used for the medium. To begin with, 10 ml of sterile PDA was pipetted into a Petri dish and after it solidified, another 6 ml of PDA containing 1% of the above described spore suspension was overlaid and solidified to prepare the test agar plate. For the fragrance sample, if the sample is in the form of liquid at ordinary temperatures, 20 μl of liquid was directly impregnated into a paper disc (Advantech, diameter: 8 mm, thick material), while a 50% by weight ethanol solution was prepared for crystals or powder, and 40 μl of that solution was then impregnated into the paper disc.
(§2) The test agar plate was placed inversely, and the paper disc impregnated with the fragrance sample was placed in the center of the cover of the agar plate, followed by incubating for 72 hours at 27° C. Evaluation was made based on the diameter (mm) of the mold growth inhibition zone. When mold growth was inhibited over the entire surface of the agar plate, the diameter of the growth inhibition zone was reported as >85 mm. At locations where mold grew outside the inhibition zone, the diameter of the spore formation inhibition zone and the degree of growth were recorded by comparing with a control. The molds used in the test are shown in Table 1, wherein these molds consist of mold species that are isolated at high frequencies from rooms and bath rooms.
(§3) The amount of blended fragrance added to the paper discs was 20 μl each, and only the diameter of the inhibition zone (mm) is indicated for the results.

Test [2] has as its system Aureobasidium pullulans IFO 6353 (Ap-1). Described as above. Conditions: 72 hours at 27° C.; for IZ: Diameter of growth inhibition zone: 20 μl fragrance (or 40 μl of 50% ethanol solution) on disc, >85 = growth inhibited over entire plate; for Growth: Growth status outside the inhibition zone: compared with control. On the procedure: as §1, §2, §3
For test [3], the system named is Cladosporium cladosporioides IFO 6348 (Cc-1). The test is described as above. The note with it: 72 hours at 27° C.; for IZ: Diameter of growth inhibition zone: 20 μl fragrance (or 40 μl of 50% ethanol solution) on disc, >85 = growth inhibited over entire plate; for Growth: Growth status outside the inhibition zone: 20 μl fragrance on disc, compared with control. On the procedure:
as §1, §2, §3

A further test deals with An-1 (Aspergillus niger). Put plainly: Confirmation of synergistic action of two fragrances (vapor, paper disc). Conditions: for Synergistic effect: second fragrance that shows synergistic action with the fragrance component / Additive effect: second fragrance that shows additive action with the fragrance component / Antagonistic effect: second fragrance that shows antagonistic action with the fragrance component: value = combination partner; for Synergistic effect: second fragrance that shows synergistic action with the fragrance component: combined IZ 20 mm or more larger than sum of single IZ; for IZ (diameter of growth inhibition zone) / Growth (growth status outside the inhibition zone) / SI (diameter of spore formation inhibition zone): 72 hours at 27° C.; for IZ (diameter of growth inhibition zone): sample amount on disc: citral 2 μl, benzaldehyde 10 μl, dimethyl tetrahydrobenzaldehyde 20 μl, geraniol 10 μl, octyl aldehyde 20 μl, 9-decen-1-ol 0.5 μl, trans-2-undecenal 3 μl, phenylacetaldehyde 5 μl, A + B = both amounts on one disc; for Growth (growth status outside the inhibition zone): sample amounts as in Table 3 (citral 2 μl, benzaldehyde 10 μl, dimethyl tetrahydrobenzaldehyde 20 μl, geraniol 10 μl, octyl aldehyde 20 μl, 9-decen-1-ol 0.5 μl, trans-2-undecenal 3 μl, phenylacetaldehyde 5 μl; A + B = both); for SI (diameter of spore formation inhibition zone): sample amounts as in Table 3 (citral 2 μl, benzaldehyde 10 μl, dimethyl tetrahydrobenzaldehyde 20 μl, geraniol 10 μl, octyl aldehyde 20 μl, trans-2-undecenal 3 μl, phenylacetaldehyde 5 μl; A + B = both); for Additive effect: second fragrance that shows additive action with the fragrance component: combined IZ intermediate; for Antagonistic effect: second fragrance that shows antagonistic action with the fragrance component: combined IZ 20 mm or more smaller than sum of single IZ. On the procedure: An agar plate prepared according to the method of Example 1 was used while using An-1 (Aspergillus niger) for the test fungi. […] 10 μl of the ethanol containing the Table 3 prescribed amount of the fragrance was impregnated into a paper disc. The test agar plate was placed inversely, and the paper disc impregnated with each fragrance alone and a paper disc simultaneously impregnated with two types of fragrances were placed in the center of the cover, followed by incubating for 72 hours at 27° C. and measuring the diameters of the resulting growth inhibition zones.
The results obtained as in Example 2 with other combinations are shown in Tables 4 through 7 as combination examples of respective synergistic, additive and antagonistic actions for each fragrant chemical product (a). […] It should be noted that in order to make the table smaller, combinations that have already been listed once are not listed in other columns of the tables.

Several values for one entry are separate records, joined by “and”; a condition that tells them apart may be missing. Equal entries are not always repeated. Entries after “also recorded” stand apart in the source; their conditions may differ. Some results are limits rather than exact numbers.

As to `CC(C)c1ccc(C=O)cc1` [Cumin aldehyde], the “IZ: Diameter of growth inhibition zone” value in test [1], in test [2] and in test [3] was more than 85 mm throughout. In addition, the “Growth: Growth status outside the inhibition zone” value in test [1] (20 μl fragrance on disc), in test [2] (20 μl fragrance on disc) and in test [3] was “none” throughout. Further, the “Synergistic effect: second fragrance that shows synergistic action with the fragrance component” value (“Synergistic effect” below) in the test on An-1 (Aspergillus niger) is recorded as “Citral DEA; also recorded: Geraniol; also recorded: Cinnamic aldehyde DMA,; also recorded: Phenylacetaldehyde; also recorded: Decanol, Anisaldehyde,; also recorded: Citronellol”.

As for `CC1=CC(C)C(C=O)CC1` (stereo not drawn) [Dimethyl tetrahydrobenzaldehyde, dimethyl tetrahydrobenzaldehyde], in test [1], the “IZ: Diameter of growth inhibition zone” value came out at 0 mm. For the same molecule, in test [1] (20 μl fragrance on disc), the “Growth: Growth status outside the inhibition zone” value is “weak”. Further, in test [2], the “IZ: Diameter of growth inhibition zone” value is more than 85 mm. Further, the “Growth: Growth status outside the inhibition zone” value in test [2] (20 μl fragrance on disc) is listed as “sparse”. Besides, in test [3], the “IZ: Diameter of growth inhibition zone” value is reported as more than 85 mm and the “Growth: Growth status outside the inhibition zone” value is reported as “sparse”. Moreover, in the test with An-1 (Aspergillus niger), the “IZ (diameter of growth inhibition zone)” value was found to be 0 mm, the “Growth (growth status outside the inhibition zone)” value is reported as “weak”, the “SI (diameter of spore formation inhibition zone)” value is more than 85 mm and the “Synergistic effect” value is recorded as “Cumin aldehyde; also recorded: Geraniol”. For the same molecule, in the test with An-1 (Aspergillus niger), the “Additive effect: second fragrance that shows additive action with the fragrance component” value (“Additive effect” below) was “Thymol, and 1-Decanol”.

For the molecule `CCC/C=C/C=O` [Trans-2-hexenal], the “IZ: Diameter of growth inhibition zone” value in test [1], in test [2] and in test [3] was more than 85 mm each time. The “Growth: Growth status outside the inhibition zone” value in test [1] (20 μl fragrance on disc), in test [2] (20 μl fragrance on disc) and in test [3] was “none” throughout. In addition, the “Additive effect” value in the test on An-1 (Aspergillus niger) was “Citral DMA, and 1-Nonanal, and 9-Decen-1-ol”.

For the molecule `O=CCCc1ccccc1` [3-Phenylpropanal], the “IZ: Diameter of growth inhibition zone” value in test [1], in test [2] and in test [3] was more than 85 mm throughout. Moreover, the “Growth: Growth status outside the inhibition zone” value in test [1] (20 μl fragrance on disc), in test [2] (20 μl fragrance on disc) and in test [3] was “none” each time. The “Synergistic effect” value in the test with An-1 (Aspergillus niger) is recorded as “Citral DMA; also recorded: Citral DEA; also recorded: Citronellal; also recorded: Salicylic aldehyde,”. In the test on An-1 (Aspergillus niger), the “Antagonistic effect: second fragrance that shows antagonistic action with the fragrance component” value (“Antagonistic effect” for short) is “Geraniol”.

`CCCCCCCC/C=C/C=O` [Trans-2-undecenal]: the “IZ: Diameter of growth inhibition zone” value in test [1] is reported as more than 85 mm. Moreover, the “Growth: Growth status outside the inhibition zone” value in test [1] (20 μl fragrance on disc) is reported as “none”. The “IZ: Diameter of growth inhibition zone” value in test [2] is more than 85 mm. The “Growth: Growth status outside the inhibition zone” value in test [2] (20 μl fragrance on disc) is reported as “none”. In test [3], the “IZ: Diameter of growth inhibition zone” value is recorded as more than 85 mm and the “Growth: Growth status outside the inhibition zone” value is on record as “none”. Also, in the test on An-1 (Aspergillus niger), the “IZ (diameter of growth inhibition zone)” value is 30 mm, the “Growth (growth status outside the inhibition zone)” value is reported as “slight”, the “SI (diameter of spore formation inhibition zone)” value is more than 85 mm and the “Synergistic effect” value was “Citral DMA; also recorded: Citral DEA; also recorded: Cumin aldehyde; also recorded: Geraniol; also recorded: Citronellol”. Further, the “Antagonistic effect” value with An-1 (Aspergillus niger) is recorded as “Eugenol”.

Consider `CCCCCCCCCCO` [Example 1-Decanol, 1-Decanol], for which the entries for the “IZ: Diameter of growth inhibition zone” value in test [1], in test [2] and in test [3] were 80 mm, 40 mm and 60 mm, respectively. Moreover, the entries for the “Growth: Growth status outside the inhibition zone” value in test [1] (20 μl fragrance on disc), in test [2] (20 μl fragrance on disc) and in test [3] were “weak”, “slight” and “weak”, respectively. Besides, in the test on An-1 (Aspergillus niger), the “Additive effect” value was “Thymol and 1-Nonanal and Methyl salicylate, and Phenylacetaldehyde, and Eugenol”.

Turning to `C=CCCCCCCCCC=O` [10-undecen-1-al], the “IZ: Diameter of growth inhibition zone” value in test [1], in test [2] and in test [3] was more than 85 mm each time. Also, the entries for the “Growth: Growth status outside the inhibition zone” value in test [1] (20 μl fragrance on disc), in test [2] (20 μl fragrance on disc) and in test [3] were “none”, “sparse” and “sparse”, respectively. The “Additive effect” value in the test on An-1 (Aspergillus niger) is on record as “Furfural,; also recorded: Geraniol”.

Take `O=Cc1ccccc1` [Benzaldehyde]: the “IZ: Diameter of growth inhibition zone” value in test [1], in test [2] and in test [3] was more than 85 mm in each case. The “Growth: Growth status outside the inhibition zone” value in test [1] (20 μl fragrance on disc), in test [2] (20 μl fragrance on disc) and in test [3] was “none” each time. Moreover, the “IZ (diameter of growth inhibition zone)” value with An-1 (Aspergillus niger) worked out at 15 mm. The “Growth (growth status outside the inhibition zone)” value in the test with An-1 (Aspergillus niger) is “slight”. Moreover, the “SI (diameter of spore formation inhibition zone)” value in the test with An-1 (Aspergillus niger) is more than 85 mm.

Consider `O=Cc1ccco1` [Furfural], for which the “IZ: Diameter of growth inhibition zone” value in test [1], in test [2] and in test [3] was more than 85 mm in each case. The “Growth: Growth status outside the inhibition zone” value in test [1] (20 μl fragrance on disc), in test [2] (20 μl fragrance on disc) and in test [3] was “none” in each case. Moreover, the “Synergistic effect” value with An-1 (Aspergillus niger) is on record as “Citronellal; also recorded: hexenal, Octyl aldehyde,; also recorded: Trans-2-undecenal,; also recorded: Cumin aldehyde,; also recorded: Geraniol; also recorded: Citronellol; also recorded: Thymol”.

Turning to `C=CCc1ccc(O)c(OC)c1` [Eugenol], the results for the “IZ: Diameter of growth inhibition zone” value in test [1], in test [2] and in test [3] were 40 mm, 40 mm and 70 mm, respectively. The “SI: Diameter of spore formation inhibition zone” value in test [1] (20 μl fragrance on disc) and in test [2] (20 μl fragrance on disc) was 60 mm each time. For the same molecule, the “Growth: Growth status outside the inhibition zone” value is “good” in test [1] (20 μl fragrance on disc), “good” in test [2] (20 μl fragrance on disc) and “weak” in test [3]. Also, in the test on An-1 (Aspergillus niger), the “Antagonistic effect” value is reported as “Phenylacetaldehyde,; also recorded: Anisaldehyde,”. Also, the “Additive effect” value with An-1 (Aspergillus niger) is on record as “Thymol”.

With `CC(C)=CCCC(C)=CC=O` [Citral], the “IZ: Diameter of growth inhibition zone” value in test [1], in test [2] and in test [3] was more than 85 mm throughout. Besides, the “Growth: Growth status outside the inhibition zone” value in test [1] (20 μl fragrance on disc), in test [2] (20 μl fragrance on disc) and in test [3] was “none” in each case. In the test with An-1 (Aspergillus niger), the “IZ (diameter of growth inhibition zone)” value is reported as 0 mm. In addition, the “Growth (growth status outside the inhibition zone)” value with An-1 (Aspergillus niger) is recorded as “weak”. Besides, in the test on An-1 (Aspergillus niger), the “SI (diameter of spore formation inhibition zone)” value came out at 20 mm.

The record behind these values is US20020177621A1, “Antifungal fragrance composition” (priority 2000, published 2002).
